Assay results as given in patent US9049865B2, “Use of fungicidal active substances for controlling mycoses on plants of the palm family” (Bayer Intellectual Property GmbH, priority 2010, dated 2015).
In brackets after ≈: the same amount, converted by molar mass. Several values for one entry are separate records, joined by “and”; a condition that tells them apart may be missing. Identical values can stand only once. Like-named read-outs stand apart in the source and are kept apart here.

Tested on: Ganoderma boninense
Assay: Microtiter plate growth test of Ganoderma boninense mycelium in potato-dextrose broth, absorption by photometer
Type: cell-based
Details: for EC50: Ganoderma boninense; for efficacy in controlling basal stem rot (BSR) disease, in words: verbal assessment of the EC50 data
Procedure: • 1. Culturing of the isolates on potato-dextrose agar (PDA) • 2. Preparation of a liquid potato-dextrose broth (PDB) as inoculum • For the development of the mycelium, 10 small pieces of the mycelium were transferred into 200 ml of the liquid potato-dextrose broth (PDB) and cultured for 7 days in a greenhouse cabinet at 26° C. • The mycelium was isolated, transferred into 200 ml of fresh liquid potato-dextrose broth supplemented with 25 mg/l enrofloxacin and comminuted using a homogenizer (5 seconds, Ultra Turrax). Thereafter this mycelial suspension was adjusted to two mycelial densities: • Inoculum A: “High mycelial density” • Homogenized mycelial suspension made up to 400 ml with PDB+enrofloxacin • Inoculum B: “Low mycelial density” • 100 ml of inoculum A made up to 400 ml with PDB+enrofloxacin • 3. Microtiter plate test: • Concentration range from 0.0-0.0064-0.032-0.16-4-20 to 100 ppm for each fungicide (active component) • Fungicide and inoculum were distributed using an automatic dispenser • 4. Evaluation (growth determination): • This is carried out every 2 days (1st evaluation after 4 days) by measuring the absorption over 13 days, using a photometer. II. Results
EC50 & (MEC50): Fungicide concentration at which the fungal growth is reduced by 50%: […]

[1] = G. boninense, high mycelial density, after 13 days, single determinations
[2] = G. boninense, low mycelial density, after 6 days, single determinations
[3] = G. boninense, low mycelial density, after 13 days, single determinations
[4] = 144 h, G. boninense, high mycelial density, after 6 days, read-out: MEC50s (mean EC50 data)
[5] = 144 h, G. boninense, low mycelial density, after 6 days, single determinations, read-out: EC50 data
[6] = 144 h, G. boninense, low mycelial density, after 6 days, read-out: MEC50s (mean EC50 data)
[7] = 312 h, G. boninense, high mycelial density, after 13 days, single determinations, read-out: EC50 data
[8] = 312 h, G. boninense, high mycelial density, after 13 days, read-out: MEC50s (mean EC50 data)
[9] = 312 h, G. boninense, low mycelial density, after 13 days, single determinations, read-out: EC50 data
[10] = 312 h, G. boninense, low mycelial density, after 13 days, read-out: MEC50s (mean EC50 data)
[11] = 144 h, G. boninense, high mycelial density, after 6 days, single determinations, read-out: EC50 data
[12] = G. boninense, high mycelial density, after 6 days, single determinations

Structure (SMILES) | EC50 data [1] | EC50 data [2] | EC50 data [3] | EC50 [4] | EC50 [5] | EC50 [6] | EC50 [7] | EC50 [8] | EC50 [9] | EC50 [10] | efficacy in controlling basal stem rot (BSR) disease, in words | EC50 [11] | EC50 data [12] | EC50 (144 h, read-out: EC50 data, G. boninense, low mycelial density, after 6 days, single determinations) | EC50 (144 h, read-out: MEC50s (mean EC50 data), G. boninense, low mycelial density, after 6 days) | EC50 (312 h, read-out: EC50 data, G. boninense, low mycelial density, after 13 days, single determinations) | EC50 (312 h, read-out: MEC50s (mean EC50 data), G. boninense, low mycelial density, after 13 days)
O=c1c2cc(F)ccc2nc(-n2cncn2)n1-c1ccc(Cl)cc1Cl [Fluquinconazole] | 0.0450 µg/mL and 0.0443 µg/mL and 0.0458 µg/mL and 0.0352 µg/mL and 0.0386 µg/mL | 0.0178 µg/mL and 0.0228 µg/mL and 0.0239 µg/mL and 0.0224 µg/mL and 0.022 µg/mL | 0.0532 µg/mL and 0.0915 µg/mL and 0.0656 µg/mL and 0.0577 µg/mL and 0.075 µg/mL | 0.034 µg/mL (≈ 0.0904 µM) | 0.0308 µg/mL (≈ 0.0819 µM) | 0.023 µg/mL (≈ 0.0611 µM) | 0.0393 µg/mL (≈ 0.104 µM) | 0.041 µg/mL (≈ 0.109 µM) | 0.0591 µg/mL (≈ 0.157 µM) | 0.066 µg/mL (≈ 0.175 µM) |  |  |  |  |  |  | 
CO/N=C(/C1=NOCCO1)c1ccccc1Oc1ncnc(Oc2ccccc2Cl)c1F [Fluoxastrobin] |  |  |  |  |  | 0.036 µg/mL (≈ 0.0785 µM) |  |  |  | 0.158 µg/mL (≈ 0.344 µM) | less effective |  |  |  |  |  | 
CON=C(C(=O)OC)c1ccccc1CON=C(C)c1cccc(C(F)(F)F)c1 [Trifloxystrobin] | 0.0119 µg/mL and 0.0081 µg/mL and 0.0115 µg/mL |  |  | 0.006 µg/mL (≈ 0.0147 µM) | 0.0064 µg/mL (≈ 0.0157 µM) | 0.006 µg/mL (≈ 0.0147 µM) | 0.0064 µg/mL (≈ 0.0157 µM) | 0.01 µg/mL (≈ 0.0245 µM) |  | 0.02 µg/mL (≈ 0.049 µM) | outstanding efficacy | 0.0064 µg/mL (≈ 0.0157 µM) |  |  |  |  | 
CC(C)(C)C(O)C(Oc1ccc(Cl)cc1)n1cncn1 (stereo not drawn) [Triadimenol] |  | 0.08 µg/mL and 0.1062 µg/mL and 0.1077 µg/mL and 0.1076 µg/mL and 0.0638 µg/mL | 0.0963 µg/mL and 0.0723 µg/mL and 0.1064 µg/mL and 0.1074 µg/mL | 0.052 µg/mL (≈ 0.176 µM) | 0.106 µg/mL (≈ 0.359 µM) | 0.093 µg/mL (≈ 0.314 µM) |  | 0.06 µg/mL (≈ 0.203 µM) | 0.103 µg/mL (≈ 0.349 µM) | 0.098 µg/mL (≈ 0.331 µM) | similarly effective | 0.0386 µg/mL (≈ 0.131 µM) | 0.0446 µg/mL and 0.0475 µg/mL and 0.0712 µg/mL and 0.0434 µg/mL and 0.0767 µg/mL |  |  |  | 
Cc1nn(C)c(F)c1C(=O)Nc1ccccc1C(C)CC(C)C (stereo not drawn) [Penflufen, N-[2-(1,3-dimethylbutyl)phenyl]-5-fluoro-1,3-dimethyl-1H-pyrazole-4-carboxamide] |  | 0.0065 µg/mL (≈ 0.0205 µM) |  | 0.008 µg/mL (≈ 0.0252 µM) | 0.0064 µg/mL (≈ 0.0202 µM) | 0.006 µg/mL (≈ 0.0189 µM) |  | 0.022 µg/mL (≈ 0.0693 µM) |  | 0.015 µg/mL (≈ 0.0473 µM) |  | 0.0076 µg/mL (≈ 0.0239 µM) | 0.0098 µg/mL and 0.0087 µg/mL |  |  |  | 
CC(C)(C)C(O)C(Oc1ccc(-c2ccccc2)cc1)n1cncn1 (stereo not drawn) [Bitertanol] |  |  | 0.1355 µg/mL and 0.1360 µg/mL and 0.1146 µg/mL and 0.1235 µg/mL and 0.1014 µg/mL | 0.062 µg/mL (≈ 0.184 µM) |  | 0.061 µg/mL (≈ 0.181 µM) |  | 0.054 µg/mL (≈ 0.16 µM) | 0.118 µg/mL (≈ 0.35 µM) | 0.121 µg/mL (≈ 0.359 µM) | similarly effective | 0.0801 µg/mL (≈ 0.237 µM) | 0.0518 µg/mL and 0.0614 µg/mL and 0.058 µg/mL and 0.0542 µg/mL and 0.0679 µg/mL |  |  |  | 
OC(Cc1ccccc1Cl)(Cn1nc[nH]c1=S)C1(Cl)CC1 (stereo not drawn) [Prothioconazole] | 0.0084 µg/mL and 0.0068 µg/mL |  |  | 0.008 µg/mL (≈ 0.0232 µM) |  | 0.012 µg/mL (≈ 0.0349 µM) | 0.0064 µg/mL (≈ 0.0186 µM) | 0.009 µg/mL (≈ 0.0261 µM) |  | 0.014 µg/mL (≈ 0.0407 µM) | best activity | 0.0064 µg/mL (≈ 0.0186 µM) | 0.0069 µg/mL and 0.0087 µg/mL and 0.0117 µg/mL and 0.0073 µg/mL |  |  |  | 
Cn1cc(C(=O)Nc2ccc(F)cc2-c2ccc(Cl)c(Cl)c2)c(C(F)F)n1 [Bixafen, N-(3′,4′-dichloro-5-fluoro-1,1′-biphenyl-2-yl)-3-(difluoromethyl)-1-methyl-1H-pyrazole-4-carboxamide] |  |  |  | 0.07 µg/mL (≈ 0.169 µM) |  | 0.027 µg/mL (≈ 0.0652 µM) |  | 0.096 µg/mL (≈ 0.232 µM) |  | 0.096 µg/mL (≈ 0.232 µM) |  |  |  |  |  |  | 
CCCN(CCOc1c(Cl)cc(Cl)cc1Cl)C(=O)n1ccnc1 [Prochloraz] |  | 0.3566 µg/mL and 0.5803 µg/mL and 0.5515 µg/mL and 0.6018 µg/mL and 0.5704 µg/mL | 0.6978 µg/mL and 1.0994 µg/mL and 0.7737 µg/mL and 0.8261 µg/mL and 1.1128 µg/mL |  |  |  |  |  |  |  |  |  |  | 0.497 µg/mL (≈ 1.32 µM) | 0.519 µg/mL (≈ 1.38 µM) | 0.94 µg/mL (≈ 2.5 µM) | 0.895 µg/mL (≈ 2.38 µM)
CC(C)(C)C(O)(CCc1ccc(Cl)cc1)Cn1cncn1 (stereo not drawn) [Tebuconazole] |  |  | 0.0065 µg/mL and 0.0067 µg/mL and 0.0072 µg/mL | 0.006 µg/mL (≈ 0.0195 µM) | 0.0064 µg/mL (≈ 0.0208 µM) | 0.006 µg/mL (≈ 0.0195 µM) |  | 0.011 µg/mL (≈ 0.0357 µM) | 0.0086 µg/mL (≈ 0.0279 µM) | 0.007 µg/mL (≈ 0.0227 µM) | best activity | 0.0064 µg/mL (≈ 0.0208 µM) |  |  |  |  | 
